Measured values published in PMC7145527 (2019).

How the values were obtained:
[1] = tested on: wt Chili RNA aptamer (RNA, aptamer) GGCUAGCUGGAGGGGCGCCAGUUCGCUGGUGGUUGGGUGCGGUCGGCUAGCC; assay: fluorescence activation
[2] = tested on: wt Chili RNA aptamer (RNA, aptamer) GGCUAGCUGGAGGGGCGCCAGUUCGCUGGUGGUUGGGUGCGGUCGGCUAGCC; assay: imino 1H NMR; conditions: K+ 50 mM, Mg2+ 1 mM; 25 mM KPi pH 7.4; 20 µM RNA, 20 µM dye
[3] = tested on: Chili U34C (RNA, aptamer) GGCUAGCUGGAGGGGCGCCAGUUCGCUGGUGGUCGGGUGCGGUCGGCUAGCC; assay: fluorescence activation; conditions: K+ 125 mM, Mg2+ 5 mM; HEPES pH 7.5; I540 203.1 versus wt 200.2
[4] = tested on: Chili C44U (RNA, aptamer) GGCUAGCUGGAGGGGCGCCAGUUCGCUGGUGGUUGGGUGCGGUUGGCUAGCC; assay: fluorescence activation; conditions: K+ 125 mM, Mg2+ 5 mM; HEPES pH 7.5; I540 122.6 versus wt 200.2
[5] = tested on: Chili C16U (RNA, aptamer) GGCUAGCUGGAGGGGUGCCAGUUCGCUGGUGGUUGGGUGCGGUCGGCUAGCC; assay: fluorescence activation; conditions: K+ 125 mM, Mg2+ 5 mM; HEPES pH 7.5; inferred from absent fluorescence; 0.5 µM RNA and dye
[6] = tested on: Chili C40U (RNA, aptamer) GGCUAGCUGGAGGGGCGCCAGUUCGCUGGUGGUUGGGUGUGGUCGGCUAGCC; assay: fluorescence activation; conditions: K+ 125 mM, Mg2+ 5 mM; HEPES pH 7.5; I540 156.1 versus wt 200.2
[7] = tested on: Chili G35A (RNA, aptamer) GGCUAGCUGGAGGGGCGCCAGUUCGCUGGUGGUUAGGUGCGGUCGGCUAGCC; assay: fluorescence activation; conditions: K+ 125 mM, Mg2+ 5 mM, HEPES pH 7.5
[8] = tested on: Chili G36A (RNA, aptamer) GGCUAGCUGGAGGGGCGCCAGUUCGCUGGUGGUUGAGUGCGGUCGGCUAGCC; assay: fluorescence activation; conditions: K+ 125 mM, Mg2+ 5 mM, HEPES pH 7.5
[9] = tested on: wt Chili RNA aptamer (RNA, aptamer) GGCUAGCUGGAGGGGCGCCAGUUCGCUGGUGGUUGGGUGCGGUCGGCUAGCC; assay: isothermal titration calorimetry; conditions: K+ 125 mM, Mg2+ 5 mM; HEPES pH 7.5, 25 °C
[10] = tested on: Chili G31A (RNA, aptamer) GGCUAGCUGGAGGGGCGCCAGUUCGCUGGUAGUUGGGUGCGGUCGGCUAGCC; assay: fluorescence activation; conditions: K+ 125 mM, Mg2+ 5 mM; HEPES pH 7.5; inferred from absent fluorescence; 0.5 µM RNA and dye
[11] = tested on: Chili U38C (RNA, aptamer) GGCUAGCUGGAGGGGCGCCAGUUCGCUGGUGGUUGGGCGCGGUCGGCUAGCC; assay: fluorescence activation; conditions: K+ 125 mM, Mg2+ 5 mM; HEPES pH 7.5; I540 129.3 versus wt 200.2
[12] = tested on: Chili C16U/G31A (RNA, aptamer) GGCUAGCUGGAGGGGUGCCAGUUCGCUGGUAGUUGGGUGCGGUCGGCUAGCC; assay: fluorescence activation; conditions: K+ 125 mM, Mg2+ 5 mM; HEPES pH 7.5; inferred from absent fluorescence; 0.5 µM RNA and dye
[13] = tested on: wt Chili RNA aptamer (RNA, aptamer) GGCUAGCUGGAGGGGCGCCAGUUCGCUGGUGGUUGGGUGCGGUCGGCUAGCC; assay: fluorescence titration; conditions: K+ 125 mM, Mg2+ 5 mM, HEPES pH 7.5, incubated at 4 °C 16 h
[14] = tested on: wt Chili RNA aptamer (RNA, aptamer) GGCUAGCUGGAGGGGCGCCAGUUCGCUGGUGGUUGGGUGCGGUCGGCUAGCC; assay: fluorescence activation kinetics; conditions: K+ 125 mM, Mg2+ 5 mM; 40 mM HEPES pH 7.5, 25 °C; 0.025 µM RNA
[15] = tested on: wt Chili RNA aptamer (RNA, aptamer) GGCUAGCUGGAGGGGCGCCAGUUCGCUGGUGGUUGGGUGCGGUCGGCUAGCC; assay: fluorescence competition; conditions: K+ 125 mM, Mg2+ 5 mM; 40 mM HEPES pH 7.5; competes with DMHBAI; up to 5 µM (tenfold excess)
[16] = K+ 125 mM, Mg2+ 5 mM, 80 mM HEPES pH 7.5, 0.5 µM RNA, 0.5 µM dye
[17] = weaker fluorescence than parent Chili

CCN1C(=O)/C(=C/c2cc(OC)c(O)c(OC)c2)N=C1C
binding [1, 16]: yes

CN1C(=Cc2cc[n+](C)c3ccccc23)Sc2ccccc21
binding [1]: yes

COc1cc(/C=C2N=C(/C=C/c3c[nH]c4ccccc34)N(C)C\2=O)cc(OC)c1O
binding [1, 16]: yes

COc1cc(/C=C2N=C(/C=C/c3c[nH]c4ccccc34)N(c3ccc(C)cc3)C\2=O)cc(OC)c1O
binding [1, 16]: yes

COc1cc(/C=C2N=C(/C=C/c3c[nH]cn3)N(C)C\2=O)cc(OC)c1O
binding [1, 16]: yes

COc1cc(/C=C2N=C(/C=C/c3ccccc3)N(C)C\2=O)cc(OC)c1O
binding [2]: yes

COc1cc(/C=C2N=C(/C=C/c3ccccc3)N(c3ccc([N+](C)(C)C)cc3)C\2=O)cc(OC)c1O
binding [1, 16]: yes

COc1cc(/C=C2N=C(/C=C/c3ccncc3)N(C)C\2=O)cc(OC)c1O
binding [2]: yes

COc1cc(/C=C2\N=C(C)N(C)C2=O)cc(Br)c1O
binding [1, 16]: yes

COc1cc(/C=C2\N=C(C)N(C)C2=O)cc(OC)c1O
binding [3]: yes
binding [4]: yes
binding [5]: no
binding [6]: yes
binding ([7]; I540 138.2 versus wt 200.2): yes
binding ([8]; I540 192.9 versus wt 200.2): yes
KD [9]: 371 ± 55 nM
binding [10]: no
binding [11]: yes
binding [12]: no

COc1cc(/C=C2\N=C(C)N([C@H]3CC[C@H](C)CC3)C2=O)cc(OC)c1O
binding [1, 16]: yes

COc1cc(/C=C2\N=C(C)N(c3ccc(C)cc3)C2=O)cc(OC)c1O
KD ([13]; Figure S6 legend instead prints 0.377±0.024 µM): 151 ± 21 nM

COc1cc(/C=C2\N=C(C)N(c3ccc([N+](C)(C)C)cc3)C2=O)cc(OC)c1O
kon [14]: 82000 M⁻¹ s⁻¹
binding [5]: no
binding [7, 17]: yes
binding [8, 17]: yes
KD [9]: 24.1 ± 5.6 nM
binding [10]: no
binding [12]: no

COc1cc(/C=C2\N=C(C)N(c3ccccc3)C2=O)cc(OC)c1O
binding [1, 16]: yes

COc1cc(/C=C2\N=C(C=NO)N(c3ccc([N+](C)(C)C)cc3)C2=O)cc(OC)c1O
kon [14]: 65000 M⁻¹ s⁻¹

COc1ccc(N2C(=O)/C(=C/c3cc(OC)c(O)c(OC)c3)N=C2C)cc1
KD ([13]; dye 0.1 µM): 65 ± 7 nM

COc1ccc(N2C(=O)/C(=C/c3cc(OC)cc(OC)c3)N=C2C)cc1
binding [15]: no

COc1ccc(N2C(=O)/C(=C/c3ccc(O)c(OC)c3)N=C2C)cc1
binding [1, 16]: yes

Cc1ccc2c(c1)sc(-c1ccc(N(C)C)cc1)[n+]2C
binding [1]: yes
